Data from publication PMC6462819 (Science immunology, 2018).

Target: T1, recombinant GSDMD (human, full-length) (Homo sapiens, UniProt P57764)
T1 sequence (P57764 1-484): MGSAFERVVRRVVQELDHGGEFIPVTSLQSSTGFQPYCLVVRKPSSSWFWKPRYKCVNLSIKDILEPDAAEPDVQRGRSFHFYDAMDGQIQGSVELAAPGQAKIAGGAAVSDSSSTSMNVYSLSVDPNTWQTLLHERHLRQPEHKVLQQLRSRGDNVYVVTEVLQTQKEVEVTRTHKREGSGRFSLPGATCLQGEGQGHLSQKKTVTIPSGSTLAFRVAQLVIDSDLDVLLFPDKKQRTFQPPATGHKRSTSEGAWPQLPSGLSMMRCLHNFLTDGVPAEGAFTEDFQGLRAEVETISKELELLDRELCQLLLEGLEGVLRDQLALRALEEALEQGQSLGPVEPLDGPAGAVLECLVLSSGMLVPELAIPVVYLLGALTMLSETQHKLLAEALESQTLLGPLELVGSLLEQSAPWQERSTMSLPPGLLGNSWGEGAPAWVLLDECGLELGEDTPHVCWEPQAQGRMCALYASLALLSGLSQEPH
Experiment: surface plasmon resonance, Biacore T200
Type: binding

Kd: 32 ± 3.8 µM
SMILES: COc1nccnc1NS(=O)(=O)c1ccc(NC(=O)/C=C/c2ccc([N+](=O)[O-])s2)cc1 [necrosulfonamide]
